Active and inactive are the calls of the source. The rule behind the calls is not given here.
Experiments:
Mus musculus [1] = assay: Hair regeneration efficacy in testosterone induced male C57BL/6 mouse androgenetic alopecia model assessed as increase in hair cycle score at 0.1 %, TOP administered once daily for 14 days with co-administration of 0.2% testosterone for 28 days; type: functional, organism-based; settings: time 14.0 day
[2] = Drug uptake in male ICR mouse lung at 4 mg/ml, TOP measured after 12 hrs by LC-MS/MS analysis; type: ADME, tissue-based; settings: in vivo, topical_or_ocular
[3] = Ratio of drug concentration in male ICR mouse skin to plasma at 4 mg/ml, TOP measured after 1 hrs by LC-MS/MS analysis; type: ADME, cell-free; settings: topical or ocular
Mus musculus [4] = assay: Hair regeneration efficacy in testosterone induced male C57BL/6 mouse androgenetic alopecia model assessed as increase in Ki67 expression in skin at 0.4 % TOP administered once daily for 14 days with co-administration of 0.2% testosterone for 28 days by DAPI staining based immunofluorescence analysis; type: functional, organism-based; settings: time 14.0 day
[5] = Ratio of drug concentration in male ICR mouse skin to lungs at 4 mg/ml, TOP measured after 0.5 hrs by LC-MS/MS analysis; type: ADME, tissue-based, Skin/Lung; settings: in vivo, topical_or_ocular
[6] = molecular target: T1, Protein cereblon/Androgen receptor (Mus musculus) (UniProt P19091+Q8C7D2); assay: In vivo PROTAC activity at CRBN/AR in testosterone induced male C57BL/6 mouse androgenetic alopecia model assessed as increase in beta-catenin expression level in skin at 0.4 % TOP administered once daily for 14 days with co-administration of 0.2% testosterone for 28 days by DAPI staining based immunofluorescence analysis; type: functional, organism-based; settings: time 14.0 day
T1 sequence (P19091 whole entry, looked up): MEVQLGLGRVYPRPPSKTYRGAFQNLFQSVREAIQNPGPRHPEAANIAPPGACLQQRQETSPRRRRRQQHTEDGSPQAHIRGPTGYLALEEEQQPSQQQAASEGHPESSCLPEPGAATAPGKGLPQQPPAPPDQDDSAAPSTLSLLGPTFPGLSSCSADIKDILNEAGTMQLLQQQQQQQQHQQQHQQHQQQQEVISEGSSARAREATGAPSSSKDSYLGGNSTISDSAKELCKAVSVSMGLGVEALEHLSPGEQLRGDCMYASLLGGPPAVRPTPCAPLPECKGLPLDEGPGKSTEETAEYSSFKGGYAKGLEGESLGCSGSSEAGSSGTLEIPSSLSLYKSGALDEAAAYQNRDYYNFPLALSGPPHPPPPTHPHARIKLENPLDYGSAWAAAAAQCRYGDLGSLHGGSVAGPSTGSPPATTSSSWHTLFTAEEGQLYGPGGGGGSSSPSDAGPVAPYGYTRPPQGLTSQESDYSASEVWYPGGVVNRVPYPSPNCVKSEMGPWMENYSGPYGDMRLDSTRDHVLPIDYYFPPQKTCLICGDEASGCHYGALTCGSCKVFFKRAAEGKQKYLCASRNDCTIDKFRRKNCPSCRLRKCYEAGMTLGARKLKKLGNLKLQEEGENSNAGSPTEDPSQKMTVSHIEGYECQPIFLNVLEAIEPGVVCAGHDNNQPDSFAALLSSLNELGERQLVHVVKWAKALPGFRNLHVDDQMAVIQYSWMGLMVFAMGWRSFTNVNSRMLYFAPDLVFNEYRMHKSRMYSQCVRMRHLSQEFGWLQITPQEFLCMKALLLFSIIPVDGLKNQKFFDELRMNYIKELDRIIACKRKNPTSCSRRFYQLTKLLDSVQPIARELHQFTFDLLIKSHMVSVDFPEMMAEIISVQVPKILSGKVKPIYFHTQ
T1 sequence (Q8C7D2 whole entry, looked up): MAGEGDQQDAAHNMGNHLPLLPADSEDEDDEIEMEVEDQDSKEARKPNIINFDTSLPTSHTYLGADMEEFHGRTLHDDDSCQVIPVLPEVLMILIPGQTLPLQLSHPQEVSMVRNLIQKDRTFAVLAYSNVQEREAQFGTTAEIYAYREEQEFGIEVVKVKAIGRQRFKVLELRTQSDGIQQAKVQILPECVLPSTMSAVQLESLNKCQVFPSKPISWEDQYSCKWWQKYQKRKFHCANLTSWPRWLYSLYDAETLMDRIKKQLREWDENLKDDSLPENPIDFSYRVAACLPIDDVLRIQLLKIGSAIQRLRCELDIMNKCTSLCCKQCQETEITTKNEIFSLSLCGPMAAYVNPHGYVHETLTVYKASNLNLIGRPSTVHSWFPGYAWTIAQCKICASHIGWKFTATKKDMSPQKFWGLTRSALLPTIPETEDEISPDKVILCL

[7] = Ratio of drug concentration in male ICR mouse skin to spleen at 4 mg/ml, TOP measured after 12 hrs by LC-MS/MS analysis; type: ADME, tissue-based; settings: in vivo, topical_or_ocular
[8] = Ratio of drug concentration in male ICR mouse skin to kidney at 4 mg/ml, TOP measured after 0.25 hrs by LC-MS/MS analysis; type: ADME, tissue-based; settings: in vivo, topical_or_ocular
[9] = Ratio of drug concentration in male ICR mouse skin to lungs at 4 mg/ml, TOP measured after 8 hrs by LC-MS/MS analysis; type: ADME, tissue-based, Skin/Lung; settings: in vivo, topical_or_ocular
[10] = molecular target: T1, Protein cereblon/Androgen receptor (Mus musculus); assay: In vivo PROTAC activity at CRBN/AR in testosterone induced male C57BL/6 mouse androgenetic alopecia model assessed as decrease in AR protein level in skin at 0.1 to 0.4 % TOP administered once daily for 14 days with co-administration of 0.2% testosterone for 28 days by Western blot analysis; type: functional, organism-based; settings: dose 0.1-0.4 %, time 14.0 day
[11] = Ratio of drug concentration in male ICR mouse skin to plasma at 4 mg/ml, TOP measured after 2 hrs by LC-MS/MS analysis; type: ADME, cell-free; settings: other tissue, topical_or_ocular
[12] = Cmax in male ICR mouse plasma at 4 mg/ml, TOP measured after 12 hrs by LC-MS/MS analysis; type: ADME, cell-free; settings: topical or ocular
Mus musculus [13] = assay: Hair regeneration efficacy in testosterone induced male C57BL/6 mouse androgenetic alopecia model assessed as increase in Ki67 expression in skin at 0.1 % TOP administered once daily for 14 days with co-administration of 0.2% testosterone for 28 days by DAPI staining based immunofluorescence analysis; type: functional, organism-based; settings: time 14.0 day
[14] = Ratio of drug concentration in male ICR mouse skin to heart at 4 mg/ml, TOP measured after 8 hrs by LC-MS/MS analysis; type: ADME, tissue-based; settings: in vivo, topical_or_ocular
[15] = molecular target: T2, Protein cereblon/Androgen receptor (Homo sapiens, UniProt P10275+Q96SW2); assay: PROTAC activity at CRBN/AR in human dermal papilla cells assessed as induction of AR degradation at 500 nM in presence of warhead of compound by Western blot analysis; type: cell-based; settings: Human dermal papilla cell
Target sequence in this assay (P10275 whole entry, looked up): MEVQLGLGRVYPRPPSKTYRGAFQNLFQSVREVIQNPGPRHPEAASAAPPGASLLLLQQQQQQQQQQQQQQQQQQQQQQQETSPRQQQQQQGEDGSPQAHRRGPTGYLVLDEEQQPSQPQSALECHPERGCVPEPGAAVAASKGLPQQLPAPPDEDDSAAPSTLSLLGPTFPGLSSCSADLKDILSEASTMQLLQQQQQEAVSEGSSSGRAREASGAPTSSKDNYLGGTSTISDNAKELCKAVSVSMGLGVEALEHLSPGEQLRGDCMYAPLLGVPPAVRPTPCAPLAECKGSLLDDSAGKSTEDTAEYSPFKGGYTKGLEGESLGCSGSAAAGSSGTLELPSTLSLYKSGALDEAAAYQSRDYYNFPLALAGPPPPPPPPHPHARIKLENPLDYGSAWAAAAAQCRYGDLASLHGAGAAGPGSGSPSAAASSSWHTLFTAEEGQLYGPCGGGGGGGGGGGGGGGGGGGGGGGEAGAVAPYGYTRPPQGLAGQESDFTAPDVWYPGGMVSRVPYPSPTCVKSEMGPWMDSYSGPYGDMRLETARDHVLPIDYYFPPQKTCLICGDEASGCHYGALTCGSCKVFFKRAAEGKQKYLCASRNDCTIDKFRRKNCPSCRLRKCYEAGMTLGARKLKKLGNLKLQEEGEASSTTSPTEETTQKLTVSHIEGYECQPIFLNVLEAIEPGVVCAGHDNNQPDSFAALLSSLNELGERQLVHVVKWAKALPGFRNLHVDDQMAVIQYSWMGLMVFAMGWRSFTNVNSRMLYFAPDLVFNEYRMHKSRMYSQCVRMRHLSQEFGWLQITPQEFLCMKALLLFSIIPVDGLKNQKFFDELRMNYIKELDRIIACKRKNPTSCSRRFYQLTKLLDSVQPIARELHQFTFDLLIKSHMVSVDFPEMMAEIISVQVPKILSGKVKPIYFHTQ
Target sequence in this assay (Q96SW2 whole entry, looked up): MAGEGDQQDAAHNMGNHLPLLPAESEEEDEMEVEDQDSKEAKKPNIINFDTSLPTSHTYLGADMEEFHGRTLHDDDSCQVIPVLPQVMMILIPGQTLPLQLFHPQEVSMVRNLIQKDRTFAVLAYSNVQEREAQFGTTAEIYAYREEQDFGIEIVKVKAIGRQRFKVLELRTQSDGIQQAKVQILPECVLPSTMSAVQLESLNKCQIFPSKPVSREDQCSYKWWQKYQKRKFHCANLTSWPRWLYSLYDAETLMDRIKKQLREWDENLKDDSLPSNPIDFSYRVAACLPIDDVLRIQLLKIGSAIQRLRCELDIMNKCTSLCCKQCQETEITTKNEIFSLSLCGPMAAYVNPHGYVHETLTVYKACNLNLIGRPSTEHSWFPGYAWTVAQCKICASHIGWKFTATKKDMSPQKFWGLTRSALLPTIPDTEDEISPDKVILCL

[16] = Ratio of drug concentration in male ICR mouse skin to kidney at 4 mg/ml, TOP measured after 0.5 hrs by LC-MS/MS analysis; type: ADME, tissue-based; settings: in vivo, topical_or_ocular
[17] = Ratio of drug concentration in male ICR mouse skin to liver at 4 mg/ml, TOP measured after 2 hrs by LC-MS/MS analysis; type: ADME, tissue-based; settings: in vivo, topical_or_ocular
[18] = Ratio of drug concentration in male ICR mouse skin to liver at 4 mg/ml, TOP measured after 1 hrs by LC-MS/MS analysis; type: ADME, tissue-based; settings: in vivo, topical_or_ocular
[19] = Ratio of drug concentration in male ICR mouse skin to plasma at 4 mg/ml, TOP measured after 0.25 hrs by LC-MS/MS analysis; type: ADME, cell-free; settings: topical or ocular
Mus musculus [20] = assay: Hair regeneration efficacy in testosterone induced male C57BL/6 mouse androgenetic alopecia model assessed as increase in hair diameter at 0.1 %, TOP administered once daily for 14 days with co-administration of 0.2% testosterone and measured after 28 days by SEM analysis; type: functional, organism-based; settings: time 28.0 day
[21] = molecular target: T2, Protein cereblon/Androgen receptor; assay: PROTAC activity at CRBN/AR in human dermal papilla cells assessed as induction of AR degradation at 500 nM in presence of MG132 by Western blot analysis; type: cell-based; settings: Human dermal papilla cell
Target sequence in this assay (P10275 whole entry, looked up): as the sequence (P10275 whole entry, looked up) above
Target sequence in this assay (Q96SW2 whole entry, looked up): as the sequence (Q96SW2 whole entry, looked up) above

[22] = Ratio of drug concentration in male ICR mouse skin to plasma at 4 mg/ml, TOP measured after 8 hrs by LC-MS/MS analysis; type: ADME, cell-free; settings: other tissue, topical_or_ocular
[23] = Ratio of drug concentration in male ICR mouse skin to liver at 4 mg/ml, TOP measured after 0.25 hrs by LC-MS/MS analysis; type: ADME, tissue-based; settings: in vivo, topical_or_ocular
[24] = Ratio of drug concentration in male ICR mouse skin to plasma at 4 mg/ml, TOP measured after 0.5 hrs by LC-MS/MS analysis; type: ADME, cell-free; settings: topical or ocular
[25] = Ratio of drug concentration in male ICR mouse skin to heart at 4 mg/ml, TOP measured after 2 hrs by LC-MS/MS analysis; type: ADME, tissue-based; settings: in vivo, topical_or_ocular
[26] = molecular target: T2, Protein cereblon/Androgen receptor; assay: PROTAC activity at CRBN/AR in human dermal papilla cell assessed as induction of AR degradation measured after 24 to 72 hrs by Western blot analysis; type: cell-based
Target sequence in this assay (P10275 whole entry): as the sequence (P10275 whole entry, looked up) above
Target sequence in this assay (Q96SW2 whole entry): as the sequence (Q96SW2 whole entry, looked up) above

Mus musculus [27] = assay: Hair regeneration efficacy in testosterone induced male C57BL/6 mouse androgenetic alopecia model assessed as entry of hair follicles to anagen phase by measuring high density of enlarged hair bulbs in subcutaneous tissue at 0.1 %, TOP administered once daily for 14 days with co-administration of 0.2% testosterone for 28 days by H and E staining based analysis; type: functional, organism-based; settings: time 14.0 day
[28] = Ratio of drug concentration in male ICR mouse skin to heart at 4 mg/ml, TOP measured after 12 hrs by LC-MS/MS analysis; type: ADME, tissue-based; settings: in vivo, topical_or_ocular
Mus musculus [29] = assay: Hair regeneration efficacy in testosterone induced male C57BL/6 mouse androgenetic alopecia model assessed as improvement in morphology of regenerated hair at 0.1 %, TOP administered once daily for 14 days with co-administration of 0.2% testosterone and measured after 28 days by SEM analysis; type: functional, organism-based; settings: time 28.0 day
[30] = Ratio of drug concentration in male ICR mouse skin to plasma at 4 mg/ml, TOP measured after 12 hrs by LC-MS/MS analysis; type: ADME, cell-free; settings: other tissue, topical_or_ocular
[31] = molecular target: T1, Protein cereblon/Androgen receptor (Mus musculus); assay: In vivo PROTAC activity at CRBN/AR in testosterone induced male C57BL/6 mouse androgenetic alopecia model assessed as decrease in AR protein level in skin at 0.4 % TOP administered once daily for 14 days with co-administration of 0.2% testosterone for 28 days by Western blot analysis relative to control; type: functional, organism-based; set-up: scale not given: the % may be the effect or the level left; settings: time 14.0 day
Mus musculus [32] = assay: Hair regeneration efficacy in testosterone induced male C57BL/6 mouse androgenetic alopecia model assessed as generation of thick hair with intact scales at 0.4 %, TOP administered once daily for 14 days with co-administration of 0.2% testosterone and measured after 28 days by SEM analysis; type: functional, organism-based; settings: time 28.0 day

Compound: N#Cc1ccc(O[C@H]2CC[C@H](NC(=O)c3ccc(C4CCN(CC5CCCN(c6ccc(C(=O)NC7CCC(=O)NC7=O)cc6)C5)CC4)cc3)CC2)cc1Cl (some centres not stated)
- Activity (Mus musculus [1]): Active; Less Effective Compared To High Dose Compound Group And Minoxidil Group
- Drug uptake [2]: Active
- Kp at 1 h [3]: 71.5
- Activity (Mus musculus [4]): Active
- Ratio [5]: 54.37
- Activity [6]: Active
- Ratio [7]: 249.88
- Ratio [8]: 484.4
- Ratio [9]: 800.46
- Activity [10]: Active
- Ratio [11]: 1098.91
- Cmax [12]: 708 ng/mL
- Activity (Mus musculus [13]): Active; Moderate Increase Observed Compared To Model Group
- Ratio [14]: 754.91
- Activity [15]: inactive
- Ratio [16]: 190.39
- Ratio [17]: 441.98
- Ratio [18]: 485.29
- Kp at 0.25 h [19]: 117
- Activity (Mus musculus [20]): Active
- Activity [21]: Not active; Compound Activity Dependent On Ubiquitin-Proteosome System
- Ratio [22]: 2610.82
- Ratio [23]: 344.99
- Kp at 0.5 h [24]: 129
- Ratio [25]: 638.59
- DC50 [26]: 0.2 µM
- Activity (Mus musculus [27]): Active; Less Effective Compared To High Dose Compound Group And Minoxidil Group
- Ratio [28]: 274.38
- Activity (Mus musculus [29]): Active
- Ratio [30]: 1736.28
- Activity [31]: > 50%
- Activity (Mus musculus [32]): Active
